Experimental data from patent US8173131B2, “Compositions and methods for modulating RSV infection and immunity” (PerkinElmer Health Sciences, Inc., priority 2000, dated 2012).

B1: G glycoprotein: purified G glycoprotein isolated from RSV/A2-infected Vero cells (protein)
chain: MSKNKDQRTAKTLERTWDTLNHLLFISSCLYKLNLKSVAQITLSILAMIISTSLIIAAIIFIASANHKVTPTTAIIQDATSQIKNTTPTYLTQNPQLGISPSNPSEITSQITTILASTTPGVKSTLQSTTVKTKNTTTTQTQPSKPTTKQRQNKPPSKPNNDFHFEVFNFVPCSICSNNPTCWAICKRIPNKKPGKKTTTKPTKKPTLKTTKKDPKPQTTKSKEVPTTKPTEEPTINTTKTNIITTLLTSNTTGNPELTSQMETFHSTSSEGNPSPSQVSTTSEYPSQPSSPPNTPRQ

How the values were obtained:
RSV = RSV plaque reduction by small molecule peptide inhibitors on Vero cells (Example II); assay type: cell-based, RSV/A2; settings: peptide added to heparin 5 μg/ml; in words
Method: Vero cells were treated with PBS, RT33, RT34, Δ+1, Δ−1 and EYp1 peptides (100 μm) in the presence (B) or absence of heparin (A) (5 μg/ml). Percentage inhibition was determined by dividing the mean plaque forming units (PFU) of treated Vero cells by the mean PFU of PBS-treated Vero cells.
Different concentrations of the G glycoprotein peptides and/or 5 μg/ml heparin (Sigma) were diluted in Dulbecco's phosphate buffered saline (D-PBS; GIBCO) and added to Vero cell monolayers for 1 h at 37° C. Pre-treated Vero cells were infected with 10^6 PFU of RSV/A2 diluted in serum-free DMEM (GIBCO) for 2 h at 37° C., after which DMEM (GIBCO) containing 10% FBS (Hyclone, Logan, Utah) was added, and the infected cells incubated at 37° C. for 3-4 days. Plaques were enumerated by immunostaining with monoclonal antibodies against the G and F glycoproteins (130-2G and 131-2A, respectively), as described (54,55).

[1] = tested on: human peripheral blood mononuclear cells; assay: Human PBMC chemotaxis and CX3CR1 expression in modified Boyden chamber; assay type: cell-based; settings: for Chemotactic Indices / CX3CR1 Expression (%) Lower / CX3CR1 Expression (%) Upper: 6 h
Method: Leukocyte chemotaxis toward Fkn, G glycoprotein or media was measured according to Boyden^46 using 24 well plates (Costar, Cambridge, Mass.) with 3 μm filter inserts (Nalge Nunc, Rochester, N.Y.) coated with an extracellular matrix consisting primarily of laminin, collagen IV and proteoglycan (ECM, Sigma, St. Louis, Mo.). For murine studies, 5×10^5 naïve spleen cells was placed in the upper chamber and 10 nM mouse Fkn or 10 nM G glycoprotein, anti-CX3CR1 antibody, anti-G or anti-F glycoprotein monoclonal antibody, normal rabbit sera, rabbit anti-CCR5 sera or media was placed in the upper or lower chamber as appropriate. For human studies, 10^6 density gradient purified (Lymphocyte Separation Media, ICN Biomedicals, Aurora, Ohio, per manufacture instructions) peripheral blood mononuclear cells (PBMC) from normal human adult donors was placed in the upper chamber in the presence or absence of 1 μM peptide RT33, and 10 nM human Fkn, 10 nM G glycoprotein or 1 μM peptide RT33 placed in the lower chambers. The modified Boyden chamber was incubated at 37° C. for 4-6 h, the inserts removed, washed in PBS (GIBCO BRL), fixed in 3% gluteraldehyde and stained in formalin-buffered 0.01% crystal violet. Chemotactic cells were visualized with a microscope. Chemotactic cells were analyzed for CX3CR1 expression by collecting cells from the upper or lower modified Boyden chambers, antibody staining (2A9-1) and flow cytometry as described. Leucocytes chemotactic toward G or Fkn expressed a higher percent of CX3CR1 in the lower (25-30%) versus upper chamber (7-11%).
Leukocyte chemotaxis and percent positive CX3CR1 expression on human PBMC after a 6 h chemotaxis assay were determined. The percentage of cells positive for CX3CR1 in both upper and lower modified Boyden chambers are shown. Chemotactic indices were determined from the fold increase of leukocyte migration toward the chemoattractant, i.e. Fkn, G glycoprotein or peptide RT33, over the leukocyte migration toward media alone. TCM=tissue culture media.

[2] = tested on: cell trafficking to the lung (BAL cells); assay: In vivo cell trafficking to the lung of naïve mice after intranasal treatment; parameters: species or system BALB/c mice; settings: for Percentage of cells from BAL determined by flow cytometry: B220 / Percentage of cells from BAL determined by flow cytometry: CD4 / Percentage of cells from BAL determined by flow cytometry: CD8 / Percentage of cells from BAL determined by flow cytometry: CD11b / Percentage of cells from BAL determined by flow cytometry: DX5 / Percentage of cells from BAL determined by flow cytometry: RB6-8C5 / Percentage of cells from BAL determined by H&E stain: Eosinophil / Percentage of cells from BAL determined by H&E stain: Lymphocyte / Percentage of cells from BAL determined by H&E stain: Macrophage / Percentage of cells from BAL determined by H&E stain: PMN: day 2 post-treatment; for Percentage of cells from BAL determined by flow cytometry: B220 / Percentage of cells from BAL determined by flow cytometry: CD4 / Percentage of cells from BAL determined by flow cytometry: CD8: lymphocyte gate; for Percentage of cells from BAL determined by flow cytometry: CD11b / Percentage of cells from BAL determined by flow cytometry: DX5 / Percentage of cells from BAL determined by flow cytometry: RB6-8C5: ungated events; for Percentage of cells from BAL determined by H&E stain: Eosinophil / Percentage of cells from BAL determined by H&E stain: Lymphocyte / Percentage of cells from BAL determined by H&E stain: Macrophage / Percentage of cells from BAL determined by H&E stain: PMN / mean BAL cell numbers (±SEM) recovered: naïve BALB/c mice; for Percentage of cells from BAL determined by H&E stain: Eosinophil / Percentage of cells from BAL determined by H&E stain: Lymphocyte / Percentage of cells from BAL determined by H&E stain: Macrophage / Percentage of cells from BAL determined by H&E stain: PMN: i.n. 1 μM, median ± SE; for mean BAL cell numbers (±SEM) recovered: intranasal 1 μM, 48 hours post-treatment
Method: FIG. 5A is a bar graph showing leukocyte chemotaxis toward G glycoprotein or fractalkine (Fkn) in the presence or absence of anti-CX3CR1 antibody or normal rabbit sera. The chemotactic index determined from the fold increase of murine leukocyte migration toward the chemoattractant (e.g., Fkn or G glycoprotein) over the leukocyte migration toward the media alone control using modified Boyden chambers. Fkn, G glycoprotein, […] (10 μg) or normal rabbit sera (10 μg) was added to the upper chamber to examine antagonism of cell migration toward the chemoattractant in the lower chamber. FIG. 5B is a bar graph showing cell trafficking to the lung of naïve BALB/c mice intranasally treated with G glycoprotein, fractalkine or G glycoprotein peptides RT32, RT33 or RT34. BAL cells were fixed and stained with H&E. Cell subsets were determined as a percentage of the total BAL cells counted from >200 cells/slide counting two slides for each experiment. The percent cell type represents the median±SE from three separate experiments. * indicates significant difference compared to tissue culture media alone (p<0.05). Naïve BALB/c mice were i.n. treated with 1 μM G glycoprotein or fractalkine or with 1 μM G glycoprotein peptides. The BAL was collected 2 days post-treatment for analysis.
Cell trafficking to the lung in naïve and FI-RSV-immune BALB/c mice was examined following intranasal treatment with either 1 μM fractalkine, RSV G glycoprotein or RSV G peptides. All mice were females purchased from Harlan Sprague Dawley (Indianapolis, Ind.) and maintained at the Centers for Disease Control and Prevention in Atlanta, Ga. FI-RSV-immune mice were immunized in the superficial gluteal muscle using 10^6 pfu equivalents of FI-RSV in accordance with methods known to those skilled in the art. Mice were anesthetized with 2,2,2,-tribromoethanol and intranasally treated with 0.05 ml of either fractalkine, RSV G glycoprotein or peptide diluted in PBS (GIBCO). At day two post-treatment, the mice were anesthetized, exsanguinated by severing the right caudal artery, and the bronchoalveolar (BAL) cells collected in PBS containing 1% BSA (Sigma). BAL cells were blocked with 10% normal mouse sera (Jackson Laboratories, Bar Harbor, Me.) in PBS, and then stained with the appropriate combinations of FITC- or PE-labeled anti-CD3 (145-2C11), anti-CD4 (GK1.5), anti-CD8 (53-6.7), anti-CD11b (M1/70), anti-CD45R/B220 (RA3-6B2), anti-pan NK cell (DX5), anti-neutrophil (RB6-8C5), and mouse isotype Ab controls (all from PharMingen, San Diego, Calif.). The distribution of cell surface markers was determined in two-color mode on a FACScan with CellQUEST software (Becton-Dickinson, Mountain View, Calif.).

[3] = TCM in upper chamber, substance in lower chamber (10 nM G or Fkn, 1 μM RT33)
[4] = TCM in upper chamber, substance in lower chamber
[5] = 1 μM RT33 in upper chamber, Fkn in lower chamber
[6] = 1 μM RT33 in upper chamber, G glycoprotein in lower chamber

Row | Molecule | effect of adding peptide to heparin on plaque reduction (RSV) | Chemotactic Indices [1, 3] | CX3CR1 Expression (%) Lower [1, 4] | CX3CR1 Expression (%) Upper [1, 4] | Percentage of cells from BAL determined by flow cytometry: B220 [2] | Percentage of cells from BAL determined by flow cytometry: CD4 [2] | Percentage of cells from BAL determined by flow cytometry: CD8 [2] | Percentage of cells from BAL determined by flow cytometry: CD11b [2] | Percentage of cells from BAL determined by flow cytometry: DX5 [2] | Percentage of cells from BAL determined by flow cytometry: RB6-8C5 [2] | Percentage of cells from BAL determined by H&E stain: Eosinophil [2] | Percentage of cells from BAL determined by H&E stain: Lymphocyte [2] | Percentage of cells from BAL determined by H&E stain: Macrophage [2] | Percentage of cells from BAL determined by H&E stain: PMN [2] | mean BAL cell numbers (±SEM) recovered [2] | further results
1 | TCWAIACKRIPNK [Δ + 1] | no effect above heparin treatment alone | – | – | – | – | – | – | – | – | – | – | – | – | – | – | –
2 | TCWACKRIPNK (TCWAIACKRIPNK) [Δ − 1] | no effect above heparin treatment alone | – | – | – | – | – | – | – | – | – | – | – | – | – | – | –
3 | Fkn: CX3C chemokine fractalkine (R&D), ligand of CX3CR1 [reference compound] | – | 3.2-3.7 | 26-30% | 7-8% | 6 ± 2% | 16 ± 4% | 6 ± 2% | 12 ± 4% | 17 ± 8% | 10 ± 6% | 0 ± 0% | 10 ± 3% | 71 ± 10% | 16 ± 5% | 3.8 (±0.6) ×10^5 cells/ml | –
4 | TCWAICKRIPNK [RT33] | – | 1.6-2.2 | 16-18% | 11-16% | 4 ± 2% | 10 ± 2% | 4 ± 2% | 10 ± 4% | 10 ± 2% | 12 ± 2% | 0 ± 0% | 4 ± 2% | 76 ± 8% | 16 ± 6% | 3.5 (±0.3) ×10^5 cells/ml | CX3CR1 Expression (%) Lower [1, 5]: 6-14%; CX3CR1 Expression (%) Upper [1, 5]: 16-21%; Chemotactic Indices [1, 5]: 1.8-2.2; CX3CR1 Expression (%) Lower [1, 6]: 9-14%; CX3CR1 Expression (%) Upper [1, 6]: 16-18%; Chemotactic Indices [1, 6]: 1.5-2.0; effect on chemotaxis toward G glycoprotein and Fkn ([1]; peptide added to upper Boyden chamber, in words): reduced chemotaxis toward both G glycoprotein and Fkn
5 | VPCSICSNNPTC [RT32] | – | – | – | – | 3 ± 2% | 2 ± 2% | 2 ± 2% | 3 ± 2% | 2 ± 1% | 2 ± 2% | 0 ± 0% | 12 ± 4% | 94 ± 5% | 2 ± 2% | 2.2 (±0.5) ×10^5 cells/ml | –
6 | NKKPGKKTTTKP [RT34] | no effect above heparin treatment alone | – | – | – | 4 ± 2% | 6 ± 2% | 3 ± 3% | 3 ± 1% | 6 ± 2% | 6 ± 4% | 0 ± 0% | 8 ± 2% | 86 ± 8% | 8 ± 3% | 2.8 (±0.2) ×10^5 cells/ml | –
7 | B1 | – | 3.0-3.6 | 25-30% | 8-11% | 5 ± 4% | 8 ± 2% | 4 ± 3% | 12 ± 5% | 9 ± 6% | 10 ± 4% | 0 ± 0% | 10 ± 3% | 68 ± 10% | 22 ± 4% | 4.6 (±1.1) ×10^5 cells/ml | –
